In data set [1] the test system is HUVECs. As to conditions: cited from earlier work. From the text:
Among these peptides, ACEi peptides represent a promising alternative to synthetic drugs to control hypertension. For instance, canary seed peptides (CSP) have great potential as anti-hypertensive and anti-obesity agents due to their inhibition activity on ACE and pancreatic lipase, and their non-competitive inhibitory activity was due to their destabilization of the transition state and Zn(II) coordination in ACE [13]. Noncompetitive ... || NO can antagonize the vascular tone function of angiotensin II by down-regulating the synthesis of ang II type 1 receptor and ACE, which is further involved in regulating the peripheral and central function of the cardiovascular system and exerts vasoprotective effects. […] Therefore, the deficiency of NO will increase the risks of cardiovascular in pathologic situations, and improving endothelial NO production represents reasonable therapeutic strateg ...

The test system of another data set is systolic blood pressure. As to conditions: single blood pressure test; cited from earlier work. An excerpt: (§1) Among these peptides, ACEi peptides represent a promising alternative to synthetic drugs to control hypertension. For instance, canary seed peptides (CSP) have great potential as anti-hypertensive and anti-obesity agents due to their inhibition activity on ACE and pancreatic lipase, and their non-competitive inhibitory activity was due to their destabilization of the transition state and Zn(II) coordination in ACE [13]. Noncompetitive ...

The next data set has as its system ET-1. To be noted: cited from earlier work; for ET-1 generation: from R. philippinarum. An excerpt:
Among these peptides, ACEi peptides represent a promising alternative to synthetic drugs to control hypertension. For instance, canary seed peptides (CSP) have great potential as anti-hypertensive and anti-obesity agents due to their inhibition activity on ACE and pancreatic lipase, and their non-competitive inhibitory activity was due to their destabilization of the transition state and Zn(II) coordination in ACE [13]. Noncompetitive ... || ET-1 is a known vasoconstriction factor similar to Ang II and is capable of inducing endothelial dysfunction related to atherosclerosis and hypertension.

For another data set, the target named is T1, ACE (Oryctolagus cuniculus, UniProt P12822).
T1 construct: purchased Sigma-Aldrich (Shanghai) Trading Co., Ltd. A6778
T1 sequence (P12822 34-1310): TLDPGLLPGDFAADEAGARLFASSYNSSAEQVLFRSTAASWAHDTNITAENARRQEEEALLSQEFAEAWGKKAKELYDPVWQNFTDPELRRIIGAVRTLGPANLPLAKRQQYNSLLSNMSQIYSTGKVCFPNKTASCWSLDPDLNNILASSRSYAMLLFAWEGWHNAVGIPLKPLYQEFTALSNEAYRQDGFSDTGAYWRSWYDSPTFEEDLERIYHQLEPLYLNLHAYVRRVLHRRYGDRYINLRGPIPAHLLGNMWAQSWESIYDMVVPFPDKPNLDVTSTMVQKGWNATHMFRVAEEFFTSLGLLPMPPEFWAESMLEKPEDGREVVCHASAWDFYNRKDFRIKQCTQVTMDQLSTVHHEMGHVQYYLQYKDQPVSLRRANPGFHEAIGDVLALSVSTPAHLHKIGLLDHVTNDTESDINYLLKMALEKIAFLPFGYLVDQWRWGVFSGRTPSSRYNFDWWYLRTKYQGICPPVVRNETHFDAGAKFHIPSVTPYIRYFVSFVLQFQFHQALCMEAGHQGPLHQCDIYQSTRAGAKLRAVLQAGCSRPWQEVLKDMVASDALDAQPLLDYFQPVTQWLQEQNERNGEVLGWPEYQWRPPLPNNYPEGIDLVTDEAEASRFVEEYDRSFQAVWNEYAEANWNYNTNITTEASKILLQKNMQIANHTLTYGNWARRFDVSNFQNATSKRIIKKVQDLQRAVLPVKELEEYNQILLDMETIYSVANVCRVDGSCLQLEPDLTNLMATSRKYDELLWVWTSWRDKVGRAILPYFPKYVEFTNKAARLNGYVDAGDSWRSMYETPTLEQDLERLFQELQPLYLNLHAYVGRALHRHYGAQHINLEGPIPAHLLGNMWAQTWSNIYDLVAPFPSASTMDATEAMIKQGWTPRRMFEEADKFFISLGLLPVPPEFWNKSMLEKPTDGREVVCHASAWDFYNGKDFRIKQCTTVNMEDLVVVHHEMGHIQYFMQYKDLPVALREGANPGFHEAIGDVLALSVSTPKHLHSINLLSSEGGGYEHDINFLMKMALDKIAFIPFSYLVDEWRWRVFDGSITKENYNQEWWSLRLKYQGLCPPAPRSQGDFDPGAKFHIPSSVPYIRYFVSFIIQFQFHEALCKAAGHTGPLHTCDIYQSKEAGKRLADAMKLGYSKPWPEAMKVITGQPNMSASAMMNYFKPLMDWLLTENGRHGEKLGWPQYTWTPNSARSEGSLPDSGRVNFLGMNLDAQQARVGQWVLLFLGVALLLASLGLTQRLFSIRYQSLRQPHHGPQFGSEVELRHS
To be noted: from Ruditapes philippinarum; cited from earlier work. From the text: Among these peptides, ACEi peptides represent a promising alternative to synthetic drugs to control hypertension. For instance, canary seed peptides (CSP) have great potential as anti-hypertensive and anti-obesity agents due to their inhibition activity on ACE and pancreatic lipase, and their non-competitive inhibitory activity was due to their destabilization of the transition state and Zn(II) coordination in ACE [13]. […] Auwal et al. illustrated that branched aliphatic or dicarboxylic amino acids (Val, Ala, Ile, and Leu) at the N-terminus could strengthen ACEi ability of peptides. Then, Val residue at the N-terminus of TMAP2 could improve its ACEi ability. […] Therefore, Ser residue, especially its hydroxyl group, should play a vital effect in the ACEi capability of ...

Data set [2] concerns HUVECs. As to the kind of experiment: ET-1 secretion of HUVECs. To be noted: 24 h. The data set is classed as cell-based, human. From the text:
Skipjack tuna (K. pelamis) muscle was provided by Ningbo Today Food Co., Ltd (China). Sephadex G-25 resins and NO assay kit (Nitrate reductase approach, A012-1) were purchased from Nanjing Jiancheng Bioengineering Institute (China). ET-1 ELISA Kit (HM10108) was purchased from Shanghai Qiaodu Biotechnology Co. Ltd. (China).Trypsase (≥20,000 U/g), pepsase (≥500,000 U/g), papain (≥400,000 U/g), ACE (A6778) and N-[3-(2-Furyl) acryloyl]-Phe-Gly-Gly (FAPGG, F713) were purchased from Sigma-Aldrich (Shanghai) Trading Co., Ltd. (China). […] ACEi Peptides of (TMAP1-TMAP6) with purity higher than 98% were synthesized in Shanghai Apeptide Co. Ltd. (China).
The NO and ET-1 contents of HUVECs were determined after a 24 h treatment of ACEi peptides. […] NO and ET-1 production in treated cells were measured by employing human NO and ET-1 assay kit as manufactures’ protocol, separately.

The subject of data set [3] is HUVECs. As to the kind of experiment: NO production in HUVECs. The data set is classed as cell-based, human. To be noted: 24 h.
For data set [4], the system named is HUVECs. Kind of data set: HUVEC viability, MTT assay. The data set is classed as cell-based, human. As to conditions: 24 h, 100–400 μM. The protocol: After thawing, HUVECs were maintained in cultured flasks and cultured to confluence in DMEM containing 1% Penicillin-Streptomycin liquid, supplemented with 10% FBS. HUVECs received the culturing process at 37°C in a humidified 5% CO2 atmosphere.
The cell viability of TMAP1 and TMAP2 on HUVECs were assessed using the MTT assay on manufacturer’s instructions. In brief, cells were incubated in 96-well plates at density of 0.8 × 10^4 cells per well with 180 μL completed DMEM. Following a confluency of 50–60% in the 96-well plates, the cells were treated with 20 μL peptides under designed concentrations (100, 200, and 400 μM) and further cultured for 24 h at 37 °C. Subsequently, the cells were added to 20 μL MTT solution (5 mg/mL) and incubated for 4 h. Finally, DMSO was added into each well, and the absorbance (A) at 490 nm was determined. The cell viability was calculated as: Cell viability (%) = (Aexperiment group/Acontrol group) × 100(2)
A general note: Tetrazolium dyes change colour on reduction, which living cells bring about.

The subject of the next data set is eNOS. To be noted: via Akt pathway; cited from earlier work.
Excerpt: as §1

What is called IC50 is the concentration that inhibits the measured activity by half. As to “GRVSNCAA [ACEi peptide from Ruditapes philippinarum]”, in the data set with HUVECs [1], the “NO production of HUVEC” value is “increasing the NO production” and the NO secretion result is “promote NO secretion”. Besides, the systolic blood pressure result in the data set on systolic blood pressure is “lower systolic blood pressure”. In addition, in the data set on ET-1, the ET-1 production result is recorded as “reduced ET-1 production” and the ET-1 generation entry is “significantly lessening ET-1 generation”. In the data set with ACE, the IC50 was 57.9 µM and the “mode of ACE inhibition” value is recorded as “Noncompetitive”.

As for H-VDRYF-OH [TMAP2, Val-Asp-Arg-Tyr-Phe], the “ET-1 secretion with NE” value with HUVECs [2] (200 μM peptide with NE (0.5 μM), NE alone 140.23 ± 5.81, p < 0.01) came out at 111.78 ± 3.06 pg/mL. Further, the ET-1 secretion in the data set on HUVECs [2] (400 μM, control 118.68 ± 0.53) was determined as 92.09 ± 4.58 pg/mL. The “ET-1 secretion vs control group” value in the data set with HUVECs [2] (tested concentrations (100–400 μM), p < 0.001 or p < 0.01) was “decreased”. For the same substance, the “reversal of NE-reduced NO content” value in the data set on HUVECs [3] (200 μM peptide with NE (0.5 μM), p < 0.001 vs NE) is recorded as “partially offset”. The substance also registered an NO level with HUVECs [3] (400 μM, control 34.41 ± 1.27, p < 0.001) of 51.88 ± 2.16 μmol/gprot. In the data set on HUVECs [3] (100, 200 and 400 μM, p < 0.001), the “NO level vs control group” value is “significantly increased”. In the data set with HUVECs [4], the cell toxicity entry is reported as “did not induce significant cell toxicity”.

With “KYIPIQ [ACEi peptide found in yak milk casein]”, the “NO synthesis in HUVECs” value in the data set with HUVECs [1] (via Akt pathway) is on record as “promote NO synthesis”. In addition, the “expression of phosphorylated eNOS in HUVECs” value in the data set on eNOS is “promote NO synthesis and the expression of phosphorylated endothelial NO synthase (eNOS) in HUVECs”.

For “TYLPVH [ACEi peptide from Ruditapes philippinarum]”, in the data set with HUVECs [1], the “NO production of HUVEC” value is given as “increasing the NO production” and the NO secretion result is “promote NO secretion”. Moreover, the systolic blood pressure result in the data set with systolic blood pressure is “lower systolic blood pressure”. Besides, in the data set on ET-1, the ET-1 production entry was “reduced ET-1 production” and the ET-1 generation result is “significantly lessening ET-1 generation”. Besides, in the data set with ACE, the IC50 was 1.37 µM and the “mode of ACE inhibition” value was “Noncompetitive”.

The values are drawn from PMC8954214, “Preparation, Identification, Molecular Docking Study and Protective Function on HUVECs of Novel ACE Inhibitory Peptides from Protein Hydrolysate of Skipjack Tuna Muscle” (Marine Drugs, 2022).
